Data set [1] addresses T1, Bcl-xL(ΔC) WT (Homo sapiens, UniProt Q07817).
T1 construct: inferred from Ni-NTA purification and the pET22b(+) NdeI/XhoI cloning); made in house; host or cells: Escherichia coli BL21(DE3) carrying pUB520
Put plainly: Pore-forming activity, calcein release from liposomes. It is filed as biochemical. As for the experimental part: Large unilamellar vesicles composed of 60% dioleoylphophatidylcholine and 40% dioleoylphosphatidylglycerol were prepared by the extrusion method of Mayer et al., supra. Lipid stocks, in chloroform, were mixed and dried under a stream of nitrogen gas. The lipid was resuspended by vortexing for 30 min in a solution of 40 mM calcein (Molecular Probes), 25 mM KCl, and 10 mM KOAc, pH 5.0. After 10 freeze-thaw cycles, the lipid suspension was extruded through two 0.1 μm pore diameter Nucleopore filters. Non-entrapped dye was removed by passage over a Sephadex G10 column (Amersham Biosciences). Lipid concentration was measured using the ammonium ferrothiocyanate method (Stewart, Anal. Biochem. 104:10-14, 1980).
For pore assays, recombinant truncated Bcl-2 family protein or mutant protein (Bcl-xL(ΔC)) (500 nM) was added to large unilamellar vesicles (60 μM lipid concentration) in 100 mM KCl, 10 mM KOAc, pH 5.0, and fluorescence measured (490 nm excitation, 520 nm emission) with a Fluoromax-3 spectrophotometer. Peptides of the BH3 domain were incubated with the BCl-xL(ΔC) 5 min prior to mixing with liposomes. AA1 was added to liposomes 1 min before adding the Bcl-xL(ΔC) protein. Samples for kinetic assays were analyzed in a thermostatted cuvette at 37° C. with constant stirring. Dose responses were measured in black quartz microplates (Hellma) at room temperature. Calcein release was expressed as percentage of maximum release with detergent lysis (0.1% Triton X-100).

Data set [2] deals with TABX1A cells (under-expressing Bcl-xL). The data set can be described thus: Cell viability by trypan blue dye exclusion. Particulars: 2 μg/ml, without fructose, six hours. From the text:
Briefly, a DNA fragment encoding the full-length mouse BCl-xL cDNA was isolated from the plasmid PBS.BCL-xL (Tzung et al., Am. J. Path. 150:1985-1995, 1997, incorporated herein by reference in its entirety) by digestion with the restriction endonuclease EcoRI. This EcoRI fragment was cloned into the EcoRI site of the mammalian expression vector pSFFV (Fuhlbrigge et al., Proc. Nat. Acad. Sci. USA 85:5649-5653, 1988) in both sense and antisense orientations, to form expression plasmids pSFFV.Bcl-xL(sense) or pSFFV.Bcl-xL(antisense), respectively. The tumorigenic murine hepatocyte cell line TAMH was transfected by lipofection (Lipofectamine, Life Technologies, Rockville, Md., according to the manufacturer's recommendations) with the plasmids pSFFV.neo (the control), pSFFV.Bcl-xL(sense) or pSFFV.Bcl-xL(antisense). […] Transfectants were selected for the acquisition of neomycin resistance by growing cells in the presence of 750 μg/ml of G418. Bulk transfectants were cloned by limiting dilution and individual clones were screened by immunoblot analysis to determine the level of BCl-xL protein expression as described below.
Selected transfectants were then tested for whole cell sensitivity to several apoptotic agents. Transfected cells were cultured to reach approximately 80% confluency prior to plating an equal number of cells from selected clones on 12-well tissue culture plates. […] Cell viability was determined by trypan blue dye exclusion. The percentage of viable cells was calculated by the number of viable cells (treated with a particular apoptogenic agent) divided by the number in the control group (untreated).
TABX2S cells and TABX1A cells were also examined for the effects of various mitochondrial inhibitors. […] At various time points after drug treatment, cells were trypsinized, and cell viability was determined by trypan blue dye exclusion. The number of viable cells were counted and normalized to control group (i.e., % control=number of viable cells (treated group)/number of viable cells (control group)×100).

For data set [3], the system named is control mitochondria (TABX1A cells). The data set can be described thus: Rhodamine 123 retention assay. On the set-up: species or system murine. As for the experimental part:
(§1) Rh-123 is a cationic lipid-soluble fluorescent dye that accumulates in mitochondria in proportion to the mitochondrial membrane potential. Mitochondria were isolated from TABX2S cells (over-expressing Bcl-xL) and from control cells, prepared as described in Example 2. The isolated mitochondria were loaded with Rh-123 by incubating with 10 μM Rh-123 for 30 minutes, washed and resuspended in buffer. […] Less than 40% of Rh-123 was retained in antimycin A-treated TABX2S mitochondria, compared with greater than 80% retained in control mitochondria.
In contrast, the control cells, which express BCl-xL at physiological levels, were resistant to BH3 peptide-induced membrane depolarization.

Data set [4] concerns mitochondria from TABX2S cells. The data set can be described thus: Swelling of isolated mitochondria (absorbance at 540 nm). The settings on record: 2 μg/ml. More on the design: species or system murine. From the text: Mitochondrial PT is caused by opening of a large conductance channel in the inner mitochondrial membrane. Opening of a large conductance channel allows free distribution of solutes of less than 1,500 Da and results in dissipation of the proton gradient and osmotic swelling of mitochondria due to the higher solute concentration in the matrix. In isolated mitochondria, the colloid osmotic swelling associated with PT pore opening can be followed by measuring the optical density change at 540 nm (Kantrow et al., Biochem. Biophy. Res. Comm. 232:669-671, 1997).
Briefly, mitochondria were isolated from TABX2S cultured cells by a modification of the procedure of Maltese et al. (J. Biol. Chem. 260:11524-11529, 1985). Typically, 0.5 to 1×10^8 cells were harvested and washed once with homogenization buffer (250 mM sucrose, 10 mM Tris-HCl, 1 mM EDTA and 1 mg/ml BSA, (pH 7.4)). The cell suspension was exposed to nitrogen at 250 psi for 30 minutes in a “cell disruption bomb” (Parr, Moline, Ill.) or homogenized in a Dounce homogenizer with a loose-fitting pestle until >90% of cells were broken. The homogenate was centrifuged at 800×g for 10 minutes. The supernatant was removed and centrifuged at 10,000×g for 10 minutes at 4° C. The pellet was resuspended and again centrifuged at 10,000×g for 10 minutes. […]

In data set [5] the test system is mitochondria from TABX2S cells. Put plainly: Rhodamine 123 retention assay. More on the design: species or system murine. Particulars: five minutes after adding. As for the experimental part:
as §1

A short description of data set [6]: Stability in solution at pH 7.4 (no S9). Format: physicochemical. Particulars: pH 7.4, absence of S9 proteins.

Here are results for three compounds from patent US20050239873A1 (priority 1999, published 2005).

T1 sequence (Q07817 1-211 limits assumed, stated change not applied): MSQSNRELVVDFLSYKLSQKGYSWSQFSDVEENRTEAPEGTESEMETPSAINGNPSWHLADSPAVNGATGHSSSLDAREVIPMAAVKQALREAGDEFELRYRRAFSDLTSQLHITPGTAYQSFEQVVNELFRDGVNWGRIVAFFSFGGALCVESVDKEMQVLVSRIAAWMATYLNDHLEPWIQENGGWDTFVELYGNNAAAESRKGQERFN

With `CCCCCC[C@H]1C(=O)O[C@H](C)[C@H](NC(=O)c2cccc(NC=O)c2OC)C(=O)O[C@@H](C)[C@@H]1OC(=O)CC(C)C` [2-OMeA1, 2-methoxy antimycin A1], the “effect on Bcl-xL pore-forming activity” value in data set [1] is given as “inhibited”.

The compound antimycin A gave a survival in data set [2] of 87%. In addition, in data set [3] (BH3 peptide 3.5 μM), the Rh123 dye leakage entry is “minimally affected”. For the same compound, the Rh-123 retained result in data set [3] (five minutes after adding) is on record as “greater than 80%”; in data set [5] it was “Less than 40%”. Further, in data set [4], the mitochondrial swelling result is “caused mitochondrial swelling”.

As for `CCCC[C@H]1C(=O)OC(C)[C@H](NC(=O)c2cccc(NC=O)c2OC)C(=O)O[C@@H](C)C1OC(=O)CC(C)C` (stereo partly shown) [2-OMeA3, Antimycin A3 methyl ether], in data set [6], the stability in solution entry was “not stable”.
